This passage reports IC50 results from patent publication US20080081814A1, “Carbonyl Compounds Which Can be Used as Inhibitors of Coagulation Factor Xa” (priority 2004, published 2008).

The assay addresses factor Xa (Homo sapiens, UniProt P00742). In words: Factor Xa inhibition (FXa-IC50). It is filed as biochemical. The text has this: The inhibition of factor Xa by the compounds according to the invention and the measurement of the anticoagulant and antithrombotic activity can be determined by conventional in-vitro or in-vivo methods. A suitable method is described, for example, by J. Hauptmann et al. in Thrombosis and Haemostasis 1990, 63, 220-223.
The inhibition of factor Xa can be measured, for example by the method of T. Hara et al. in Thromb. Haemostas. 1994, 71, 314-319.

factor Xa, sequence (P00742 235-488 limits assumed): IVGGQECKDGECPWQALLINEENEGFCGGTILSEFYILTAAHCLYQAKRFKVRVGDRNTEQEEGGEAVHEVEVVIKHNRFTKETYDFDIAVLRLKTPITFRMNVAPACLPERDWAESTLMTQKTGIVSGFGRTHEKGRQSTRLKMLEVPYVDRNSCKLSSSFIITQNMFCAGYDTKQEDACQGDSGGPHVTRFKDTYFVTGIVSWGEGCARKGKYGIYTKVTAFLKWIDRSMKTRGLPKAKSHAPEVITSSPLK
factor Xa, sequence (P00742 41-179 partner limits assumed): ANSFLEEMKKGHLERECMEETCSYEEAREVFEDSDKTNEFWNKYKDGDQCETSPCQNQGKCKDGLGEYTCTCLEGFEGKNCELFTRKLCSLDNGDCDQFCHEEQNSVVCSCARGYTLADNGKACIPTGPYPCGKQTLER

For the compound `CCOC(=O)O[C@@H]1C[C@H](C(=O)Nc2ccc(N3CCOCC3=O)cc2)N(C(=O)Nc2ccc(Cl)cc2)C1` [Compound A1, N-1-(4-chlorophenyl)-4-(ethoxycarbonyloxy)-N-2-[4-(3-oxomorpholin-4-yl)phenyl)-(2R,4R)-pyrrolidine-1,2-dicarboxamide], the IC50 was 2 nM.
